Measurements published in ChEMBL document CHEMBL4270673, “Receptor-Ligand Interaction Measured by Inductively Coupled Plasma Mass Spectrometry and Selenium Labeling” (J Med Chem, 2018).
pKd, pKi: −log10 of the molar value. Where a SMILES comes first, the peptide text is derived from it. [ ]: non-standard residue; d: D form. The star is where a group is joined. SeMet = C[Se]CC[C@H](N)C(=O)O; X1 = O=C(C[Se]c1ccccc1)*; Ahx = NCCCCCC(=O)O

Tests used:
Vasopressin V1a receptor [1] = biological target: T1, Vasopressin V1a receptor (Homo sapiens, UniProt P37288); assay: Displacement of [Se-Se]-AVP from human V1A receptor expressed in CHO cells after 4 hrs by RP-LC-ICPMS analysis; format: cell-based
Target sequence in this assay (P37288 whole entry): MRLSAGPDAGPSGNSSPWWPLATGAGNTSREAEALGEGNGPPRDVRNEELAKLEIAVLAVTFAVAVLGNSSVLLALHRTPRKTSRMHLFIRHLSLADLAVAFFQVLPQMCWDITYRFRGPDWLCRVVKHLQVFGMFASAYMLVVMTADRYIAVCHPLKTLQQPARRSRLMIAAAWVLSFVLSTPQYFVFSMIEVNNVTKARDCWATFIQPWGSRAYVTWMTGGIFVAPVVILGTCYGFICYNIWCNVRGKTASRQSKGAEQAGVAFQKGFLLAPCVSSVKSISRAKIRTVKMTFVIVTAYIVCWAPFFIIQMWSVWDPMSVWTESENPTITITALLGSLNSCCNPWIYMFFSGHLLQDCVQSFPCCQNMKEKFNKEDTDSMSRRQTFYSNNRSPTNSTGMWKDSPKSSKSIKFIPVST

Vasopressin V1a receptor [2] = biological target: T1, Vasopressin V1a receptor; assay: Displacement of [125I]OH-Phpa-LVA from human V1A receptor expressed in CHO cells after 4 hrs by gamma counter analysis; format: cell-based
Target sequence in this assay (P37288 whole entry): as above

Vasopressin V1a receptor [3] = biological target: T1, Vasopressin V1a receptor; assay: Binding affinity to human V1A receptor expressed in CHO cells assessed per million cells after 4 hrs by RP-LC-ICPMS analysis; format: cell-based
Target sequence in this assay (P37288 whole entry, looked up): as the sequence (P37288 whole entry) above

Vasopressin V1a receptor [4] = biological target: T1, Vasopressin V1a receptor; assay: Binding affinity to human V1A receptor expressed in CHO cell membranes
Target sequence in this assay (P37288 whole entry): as above

[5] = biological target: T2, Gastrin/cholecystokinin type B receptor (Homo sapiens, UniProt P32239); assay: Displacement of non-sulfated CCK-8 from CCKB receptor (unknown origin) expressed in HEK cells after 4 hrs by RP-LC-ICPMS analysis; format: cell-based
T2 sequence (P32239 whole entry): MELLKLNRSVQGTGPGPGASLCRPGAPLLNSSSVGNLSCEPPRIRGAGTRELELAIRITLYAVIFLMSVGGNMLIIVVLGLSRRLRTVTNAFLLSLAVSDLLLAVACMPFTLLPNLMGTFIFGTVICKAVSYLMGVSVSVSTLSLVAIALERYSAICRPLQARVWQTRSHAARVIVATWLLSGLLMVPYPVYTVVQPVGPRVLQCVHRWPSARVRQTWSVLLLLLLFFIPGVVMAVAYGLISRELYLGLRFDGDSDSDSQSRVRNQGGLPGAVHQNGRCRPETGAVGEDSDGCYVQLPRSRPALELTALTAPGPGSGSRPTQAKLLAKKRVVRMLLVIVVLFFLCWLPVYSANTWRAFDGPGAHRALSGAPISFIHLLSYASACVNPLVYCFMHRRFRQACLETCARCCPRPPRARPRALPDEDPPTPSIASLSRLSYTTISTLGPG

[6] = biological target: T2, Gastrin/cholecystokinin type B receptor; assay: Binding affinity to CCKB receptor (unknown origin) expressed in HEK cells after 4 hrs by RP-LC-ICPMS analysis; format: cell-based
Vasopressin V1a receptor [7] = biological target: T1, Vasopressin V1a receptor; assay: Displacement of [Ph-Se-acetyl]-LVA from human V1A receptor expressed in CHO cells after 4 hrs by RP-LC-ICPMS analysis; format: cell-based
Target sequence in this assay (P37288 whole entry): as the sequence (P37288 whole entry) above

Vasopressin V1a receptor [8] = biological target: T1, Vasopressin V1a receptor; assay: Binding affinity to human V1A receptor expressed in CHO cells after 4 hrs by RP-LC-ICPMS analysis; format: cell-based
Target sequence in this assay (P37288 whole entry): as the sequence (P37288 whole entry) above

Vasopressin V1a receptor [9] = biological target: T1, Vasopressin V1a receptor; assay: Displacement of [Sez6]-HO-Phpa-LVA from human V1A receptor expressed in CHO cells after 4 hrs by RP-LC-ICPMS analysis; format: cell-based
Target sequence in this assay (P37288 whole entry): as the sequence (P37288 whole entry) above

Row | pKi (Vasopressin V1a receptor [1]) | pKi (Vasopressin V1a receptor [2]) | Bmax (Vasopressin V1a receptor [3]) [fmol] | Compound | other results
1 | 9.70 | 9.10 |  | COc1ccc(C[C@@H](NC(=O)CCc2ccc(O)cc2)C(=O)N[C@@H](Cc2ccccc2)C(=O)N[C@@H](CCC(N)=O)C(=O)N[C@@H](CC(N)=O)C(=O)N[C@@H](CCCNC(=N)N)C(=O)N2CCC[C@H]2C(=O)N[C@@H](CCCNC(=N)N)C(N)=O)cc1 | 
2 | 5.53 | 6.52 |  | CCOc1ccc2c(c1)[C@]1(CC[C@H](OCCN3CCOCC3)CC1)C(=O)N2S(=O)(=O)c1ccc(C(=O)NC(C)(C)C)cc1OC | 
3 |  |  |  | CSCC[C@H](NC(=O)[C@H](Cc1c[nH]c2ccccc12)NC(=O)CCCCCNC(=O)[C@H](CCCNC(=N)N)NC(=O)C[Se]c1ccccc1)C(=O)N[C@@H](CC(=O)O)C(=O)N[C@@H](Cc1ccccc1)C(N)=O (X1-R[Ahx]WMDF-NH2) | pKi [5]: 8.10; pKd [6]: 7.53
4 |  | 9.05 | 696 | COc1ccc(C[C@@H](NC(=O)C[Se]c2ccc(O)cc2)C(=O)N[C@@H](Cc2ccccc2)C(=O)N[C@@H](CCC(N)=O)C(=O)N[C@@H](CC(N)=O)C(=O)N[C@@H](CCCNC(=N)N)C(=O)N2CCC[C@H]2C(=O)N[C@@H](CCCNC(=N)N)C(N)=O)cc1 | pKi (Vasopressin V1a receptor [7]): 7.89; pKd (Vasopressin V1a receptor [8]): 9.49
5 |  | 5.89 |  | N=C(N)NCCC[C@H](NC(=O)[C@@H]1CCCN1C(=O)[C@@H]1C[Se]C[C@H](N)C(=O)N[C@@H](Cc2ccc(O)cc2)C(=O)N[C@@H](Cc2ccccc2)C(=O)N[C@@H](CCC(N)=O)C(=O)N[C@@H](CC(N)=O)C(=O)N1)C(=O)NCC(N)=O | 
6 |  |  |  | CSCC[C@H](NC(=O)[C@H](Cc1c[nH]c2ccccc12)NC(=O)CCCCCNC(=O)[C@H](CCCNC(=N)N)NC(=O)[C@H](CC[Se]C)NC(C)=O)C(=O)N[C@@H](CC(=O)O)C(=O)N[C@@H](Cc1ccccc1)C(N)=O (Ac-[SeMet]R[Ahx]WMDF-NH2) | pKi [5]: 8.41; pKd [6]: 7.34
7 | 9.40 | 9.05 | 845 | COc1ccc(C[C@@H](NC(=O)CCc2ccc(O)cc2)C(=O)N[C@@H](Cc2ccccc2)C(=O)N[C@@H](CCC(N)=O)C(=O)N[C@@H](CC(N)=O)C(=O)N[C@@H](CCCNC(=N)N)C(=O)N2C[Se]C[C@H]2C(=O)N[C@@H](CCCNC(=N)N)C(N)=O)cc1 | pKd (Vasopressin V1a receptor [8]): 9.35; pKi (Vasopressin V1a receptor [9]): 8.42

Row | Compound | pKi (Vasopressin V1a receptor [1]) | pKi (Vasopressin V1a receptor [2]) | Bmax (Vasopressin V1a receptor [3]) [fmol] | other results
8 | N=C(N)NCCC[C@@H](NC(=O)[C@@H]1CCCN1C(=O)[C@@H]1C[Se][Se]C[C@H](N)C(=O)N[C@@H](Cc2ccc(O)cc2)C(=O)N[C@@H](Cc2ccccc2)C(=O)N[C@@H](CCC(N)=O)C(=O)N[C@@H](CC(N)=O)C(=O)N1)C(=O)NCC(N)=O |  |  | 1060 | 
9 | N=C(N)NCCC[C@H](NC(=O)[C@@H]1CCCN1C(=O)[C@@H]1C[Se][Se]C[C@H](N)C(=O)N[C@@H](Cc2ccc(O)cc2)C(=O)N[C@@H](Cc2ccccc2)C(=O)N[C@@H](CCC(N)=O)C(=O)N[C@@H](CC(N)=O)C(=O)N1)C(=O)NCC(N)=O | 8.77 | 9.15 |  | pKd (Vasopressin V1a receptor [4]): 8.52 to 9.22
